target: T1, myeloperoxidase (MPO) (Homo sapiens, UniProt P05164); assay: MPO peroxidation assay (Amplex Red assay); assay type: biochemical; conditions: MPO peroxidation, potency range class; read-out: Amplex Red IC50
T1 sequence (P05164 49-745): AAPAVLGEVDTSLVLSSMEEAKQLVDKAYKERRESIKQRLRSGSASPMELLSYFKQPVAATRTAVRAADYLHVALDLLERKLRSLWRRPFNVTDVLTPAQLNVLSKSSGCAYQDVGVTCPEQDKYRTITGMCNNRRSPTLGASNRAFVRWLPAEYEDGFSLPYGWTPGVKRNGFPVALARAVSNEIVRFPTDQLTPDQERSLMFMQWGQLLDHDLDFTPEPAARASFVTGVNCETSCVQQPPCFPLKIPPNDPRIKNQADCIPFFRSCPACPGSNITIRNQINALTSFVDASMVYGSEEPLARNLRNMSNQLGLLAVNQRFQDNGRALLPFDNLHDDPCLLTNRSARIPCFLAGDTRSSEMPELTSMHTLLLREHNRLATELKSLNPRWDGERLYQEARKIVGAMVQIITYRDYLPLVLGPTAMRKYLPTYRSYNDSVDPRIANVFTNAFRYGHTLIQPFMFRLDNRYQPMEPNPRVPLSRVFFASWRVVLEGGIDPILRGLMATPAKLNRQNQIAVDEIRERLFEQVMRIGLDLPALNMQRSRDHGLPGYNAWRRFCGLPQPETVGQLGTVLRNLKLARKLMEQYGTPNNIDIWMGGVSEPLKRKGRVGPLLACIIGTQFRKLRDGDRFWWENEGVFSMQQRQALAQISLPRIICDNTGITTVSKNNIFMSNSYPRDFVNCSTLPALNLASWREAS
How it was run: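 Peroxidase turnover of Amplex Red to fluorescent resorufin (Ex 535/Em 590 nm) was followed for 15 min in 100 mM KPi, pH 7.4, after 10 min room-temperature preincubation of compound with 200 pM enzyme plus 40 nM H2O2. The substrate mix contained 200 μM Amplex Red and 10 mM H2O2. IC50s came from linear-phase rates (180–540 s) fitted with a Hill equation.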

| Compound | IC50 [nM] |
| --- | --- |
| N#Cc1cc(-c2ccc(C3CC3)nc2)ccc1COc1cc(N)nc2[nH]nnc12 [Example 316, 2-(((5-amino-3H-[1,2,3]triazolo[4,5-b]pyridin-7-yl)oxy)methyl)-5-(6-cyclopropylpyridin-3-yl)benzonitrile] | 1 to 100 |
| CN(C)c1ncc(-c2ccc(COc3cc(N)nc4[nH]nnc34)c(C#N)c2)cn1 [Example 317, 2-(((5-amino-3H-[1,2,3]triazolo[4,5-b]pyridin-7-yl)oxy)methyl)-5-(2-(dimethylamino)pyrimidin-5-yl)benzonitrile] | 1 to 100 |
| CC(=O)N1CCN(c2ccc(-c3ccc(COc4cc(N)nc5[nH]nnc45)c(C#N)c3)cn2)CC1 [Example 318, 5-(6-(4-acetylpiperazin-1-yl)pyridin-3-yl)-2-(((5-amino-3H-[1,2,3]triazolo[4,5-b]pyridin-7-yl)oxy)methyl) benzonitrile] | 1 to 100 |
| CN1CCN(c2ccc(-c3ccc(COc4cc(N)nc5[nH]nnc45)c(C#N)c3)cn2)CC1 [Example 319, 2-(((5-amino-3H-[1,2,3]triazolo[4,5-b]pyridin-7-yl)oxy)methyl)-5-(6-(4-methylpiperazin-1-yl)pyridin-3-yl)benzonitrile] | 1 to 100 |
| N#Cc1cc(-c2ccc(N3CCCCC3)nc2)ccc1COc1cc(N)nc2[nH]nnc12 [Example 320, 2-(((5-amino-3H-[1,2,3]triazolo[4,5-b]pyridin-7-yl)oxy)methyl)-5-(6-(piperidin-1-yl)pyridin-3-yl)benzonitrile] | 101 to 999 |
| CN1CCN(c2ncc(-c3ccc(COc4cc(N)nc5[nH]nnc45)c(C#N)c3)cn2)CC1 [Example 321, 2-(((5-amino-3H-[1,2,3]triazolo[4,5-b]pyridin-7-yl)oxy)methyl)-5-(2-(4-methylpiperazin-1-yl)pyrimidin-5-yl)benzonitrile] | 1 to 100 |
| CS(=O)(=O)c1cncc(-c2ccc(COc3cc(N)nc4[nH]nnc34)c(C#N)c2)c1 [Example 322, 2-(((5-amino-3H-[1,2,3]triazolo[4,5-b]pyridin-7-yl)oxy)methyl)-5-(5-(methylsulfonyl)pyridin-3-yl)benzonitrile] | 1 to 100 |
| COc1ncc(-c2ccc(COc3cc(N)nc4[nH]nnc34)c(C#N)c2)cc1F [Example 323, 2-(((5-amino-3H-[1,2,3]triazolo[4,5-b]pyridin-7-yl)oxy)methyl)-5-(5-fluoro-6-methoxypyridin-3-yl)benzonitrile] | 1 to 100 |
| N#Cc1cc(-c2ccc(F)nc2F)ccc1COc1cc(N)nc2[nH]nnc12 [Example 324, 2-(((5-amino-3H-[1,2,3]triazolo[4,5-b]pyridin-7-yl)oxy)methyl)-5-(2,6-difluoropyridin-3-yl)benzonitrile] | 1 to 100 |
| N#Cc1ccc(-c2ccc(COc3cc(N)nc4[nH]nnc34)c(C#N)c2)cn1 [Example 325, 5-(4-(((5-amino-3H-[1,2,3]triazolo[4,5-b]pyridin-7-yl)oxy)methyl)-3-cyanophenyl) picolinonitrile] | 1 to 100 |
| N#Cc1cc(-c2ccc(N3CCCC3)nc2)ccc1COc1cc(N)nc2[nH]nnc12 [Example 326, 2-(((5-amino-3H-[1,2,3]triazolo[4,5-b]pyridin-7-yl)oxy)methyl)-5-(6-(pyrrolidin-1-yl)pyridin-3-yl)benzonitrile] | 1 to 100 |
| N#Cc1cc(-c2ccc(N3CCNCC3)nc2)ccc1COc1cc(N)nc2[nH]nnc12 [Example 327, 2-(((5-amino-3H-[1,2,3]triazolo[4,5-b]pyridin-7-yl)oxy)methyl)-5-(6-(piperazin-1-yl)pyridin-3-yl)benzonitrile] | 1 to 100 |
| N#Cc1cc(-c2ccc(CN)nc2)ccc1COc1cc(N)nc2[nH]nnc12 [Example 328, 2-(((5-amino-3H-[1,2,3]triazolo[4,5-b]pyridin-7-yl)oxy)methyl)-5-(6-(aminomethyl)pyridin-3-yl)benzonitrile] | 1 to 100 |
| N#Cc1cc(-c2cnc(N3CCNCC3)nc2)ccc1COc1cc(N)nc2[nH]nnc12 [Example 329, 2-(((5-amino-3H-[1,2,3]triazolo[4,5-b]pyridin-7-yl)oxy)methyl)-5-(2-(piperazin-1-yl)pyrimidin-5-yl)benzonitrile] | 1 to 100 |
| N#Cc1cc(-c2ccc(F)nc2)ccc1COc1cc(N)nc2[nH]nnc12 [Example 330, 2-(((5-amino-3H-[1,2,3]triazolo[4,5-b]pyridin-7-yl)oxy)methyl)-5-(6-fluoropyridin-3-yl)benzonitrile] | 1 to 100 |
| COc1ccccc1CNC(=O)c1ccc(COc2cc(N)nc3[nH]nnc23)c(Cl)c1 [Example 331, 4-((5-amino-3H-[1,2,3]triazolo[4,5-b]pyridin-7-yloxy)methyl)-3-chloro-N-(2-methoxybenzyl) benzamide] | 1 to 100 |

| Compound | IC50 [nM] |
| --- | --- |
| Nc1cc(OCc2c(F)cc(-c3cccnc3)cc2F)c2nn[nH]c2n1 [Example 332, 7-((2,6-difluoro-4-(pyridin-3-yl)benzyl)oxy)-3H-[1,2,3] triazolo[4,5-b]pyridin-5-amine] | 1 to 100 |
| COc1ccc(-c2cc(F)c(COc3cc(N)nc4[nH]nnc34)c(F)c2)cn1 [Example 333, 7-((2,6-difluoro-4-(6-methoxypyridin-3-yl)benzyl)oxy)-3H-[1,2,3]triazolo[4,5-b] pyridin-5-amine] | 1 to 100 |
| Nc1cc(OCc2c(F)cc(-c3ccc(N4CCOCC4)nc3)cc2F)c2nn[nH]c2n1 [Example 335, 7-((2,6-difluoro-4-(6-morpholinopyridin-3-yl)benzyl)oxy)-3H-[1,2,3]triazolo[4,5-b] pyridin-5-amine] | 1 to 100 |
| Nc1ccc(-c2cc(F)c(COc3cc(N)nc4[nH]nnc34)c(F)c2)cn1 [Example 337, 7-((4-(6-aminopyridin-3-yl)-2,6-difluorobenzyl)oxy)-3H-[1,2,3]triazolo[4,5-b] pyridin-5-amine] | 1 to 100 |
| N#Cc1ccc(-c2cc(F)c(COc3cc(N)nc4[nH]nnc34)c(F)c2)cn1 [Example 338, 5-(4-(((5-amino-3H-[1,2,3]triazolo[4,5-b]pyridin-7-yl)oxy)methyl)-3,5-difluorophenyl) picolinonitrile] | 1 to 100 |
| Nc1cc(OCc2c(F)cc(-c3ccc(OCc4ccccc4)nc3)cc2F)c2nn[nH]c2n1 [Example 339, 7-((4-(6-(benzyloxy)pyridin-3-yl)-2,6-difluorobenzyl)oxy)-3H-[1,2,3]triazolo[4,5-b] pyridin-5-amine] | 101 to 999 |
| Nc1cc(OCc2c(F)cc(-c3ccc(F)nc3F)cc2F)c2nn[nH]c2n1 [Example 340, 7-((4-(2,6-difluoropyridin-3-yl)-2,6-difluorobenzyl)oxy)-3H-[1,2,3]triazolo[4,5-b]pyridin-5-amine] | 101 to 999 |
| NC(=O)c1ccc(-c2cc(F)c(COc3cc(N)nc4[nH]nnc34)c(F)c2)cn1 [Example 341, 5-(4-(((5-amino-3H-[1,2,3]triazolo[4,5-b]pyridin-7-yl)oxy)methyl)-3,5-difluorophenyl) picolinamide] | 1 to 100 |
| Nc1cc(OCc2c(F)ccc(-c3ccc(N4CCOCC4)nc3)c2Cl)c2nn[nH]c2n1 [Example 342, 7-((2-chloro-6-fluoro-3-(6-morpholinopyridin-3-yl)benzyl)oxy)-3H-[1,2,3]triazolo[4,5-b] pyridin-5-amine] | 1 to 100 |
| Nc1cncc(-c2ccc(F)c(COc3cc(N)nc4[nH]nnc34)c2Cl)c1 [Example 343, 7-((3-(5-aminopyridin-3-yl)-2-chloro-6-fluorobenzyl)oxy)-3H-[1,2,3]triazolo[4,5-b] pyridin-5-amine] | 1 to 100 |
| Nc1cc(OCc2c(F)ccc(-c3ccc(N4CCNCC4)nc3)c2Cl)c2nn[nH]c2n1 [Example 344, 7-((2-chloro-6-fluoro-3-(6-(piperazin-1-yl)pyridin-3-yl)benzyl)oxy)-3H-[1,2,3]triazolo [4,5-b]pyridin-5-amine] | 1 to 100 |
| CN1CCN(c2ccc(-c3ccc(F)c(COc4cc(N)nc5[nH]nnc45)c3)cn2)CC1 [Example 346, 7-((2-fluoro-5-(6-(4-methylpiperazin-1-yl)pyridin-3-yl)benzyl)oxy)-3H-[1,2,3]triazolo [4,5-b]pyridin-5-amine] | 101 to 999 |
| Nc1cc(OCc2cc(-c3ccc(CO)nc3)ccc2F)c2nn[nH]c2n1 [Example 347, (5-(3-(((5-amino-3H-[1,2,3]triazolo[4,5-b]pyridin-7-yl)oxy)methyl)-4-fluorophenyl)pyridin-2-yl)methanol] | 1 to 100 |
| CN1CCN(c2ncc(-c3ccc(F)c(COc4cc(N)nc5[nH]nnc45)c3Cl)cn2)CC1 [Example 348, 7-((2-chloro-6-fluoro-3-(2-(4-methylpiperazin-1-yl)pyrimidin-5-yl)benzyl)oxy)-3H-[1,2,3]triazolo[4,5-b] pyridin-5-amine] | 101 to 999 |
| N#Cc1cc(-c2ccc(N3CCNC(=O)C3)nc2)ccc1COc1cc(N)nc2[nH]nnc12 [Example 349, 2-(((5-Amino-3H-[1,2,3]triazolo[4,5-b]pyridin-7-yl)oxy)methyl)-5-(6-(3-oxopiperazin-1-yl)pyridin-3-yl)benzonitrile] | 101 to 999 |

— patent publication US10316035B2, “Triazolopyridine inhibitors of myeloperoxidase” (BRISTOL-MYERS SQUIBB COMPANY, priority 2015, dated 2019)
